Assay results published in the NIST ThermoML archive (doi:10.1016/j.jct.2019.05.009).
Numbers after ± are expanded uncertainties.

Assay: molar heat capacity at constant pressure
Conditions: 101.33 kPa, Crystal, relaxation calorimetry

[Al] [aluminum]
Conditions	molar heat capacity at constant pressure [J/K/mol]
1.863 K	0.002602 ± 0.00014
1.936 K	0.002749 ± 0.00015
2.01 K	0.002882 ± 0.00015
2.089 K	0.002997 ± 0.00016
2.173 K	0.003177 ± 0.00017
2.264 K	0.003323 ± 0.00018
2.36 K	0.003531 ± 0.00019
2.459 K	0.003773 ± 0.0002
2.562 K	0.003901 ± 0.00021
2.677 K	0.00413 ± 0.00022
2.795 K	0.004373 ± 0.00023
2.915 K	0.004596 ± 0.00025
3.042 K	0.004765 ± 0.00025
3.177 K	0.005056 ± 0.00027
3.318 K	0.005413 ± 0.00029
3.464 K	0.005679 ± 0.0003
3.615 K	0.005941 ± 0.00032
3.776 K	0.006361 ± 0.00034
3.943 K	0.00681 ± 0.00036
4.119 K	0.007189 ± 0.00038
4.301 K	0.007838 ± 0.00042
4.492 K	0.008275 ± 0.00044
4.687 K	0.008914 ± 0.00048
4.896 K	0.009549 ± 0.00051
5.111 K	0.01026 ± 0.00055
5.34 K	0.01095 ± 0.00059
5.574 K	0.01158 ± 0.00062
5.822 K	0.01268 ± 0.00068
6.08 K	0.01359 ± 0.00073
6.349 K	0.01458 ± 0.00078
6.636 K	0.01573 ± 0.00084
6.925 K	0.01714 ± 0.00092
7.23 K	0.01866 ± 0.001
7.547 K	0.02044 ± 0.0011
7.883 K	0.02258 ± 0.0012
8.234 K	0.02467 ± 0.0013
8.595 K	0.02641 ± 0.0014
8.981 K	0.02942 ± 0.0016
9.378 K	0.03231 ± 0.0017
9.795 K	0.03497 ± 0.0019
10.24 K	0.03897 ± 0.0016
10.71 K	0.04317 ± 0.0018
11.19 K	0.04767 ± 0.0019
11.69 K	0.05284 ± 0.0021
12.21 K	0.05868 ± 0.0024
12.75 K	0.06538 ± 0.0027
13.31 K	0.07304 ± 0.003
13.9 K	0.08149 ± 0.0033
14.52 K	0.09112 ± 0.0037
15.16 K	0.1021 ± 0.0042
15.66 K	0.1115 ± 0.0045
17.12 K	0.1425 ± 0.0058
18.7 K	0.1842 ± 0.0075
20.44 K	0.24 ± 0.0098
22.34 K	0.317 ± 0.013
24.42 K	0.423 ± 0.017
26.67 K	0.5669 ± 0.023
29.14 K	0.7607 ± 0.031
31.85 K	1.02 ± 0.041
34.81 K	1.356 ± 0.055
38.05 K	1.784 ± 0.072
41.58 K	2.319 ± 0.094
45.44 K	2.967 ± 0.12
49.66 K	3.728 ± 0.15
54.27 K	4.615 ± 0.19
59.31 K	5.613 ± 0.23
64.81 K	6.718 ± 0.27
70.81 K	7.909 ± 0.32
77.38 K	9.17 ± 0.37
84.53 K	10.51 ± 0.43
92.37 K	11.83 ± 0.48
100.93 K	13.12 ± 0.53
111.01 K	14.49 ± 0.59
121.1 K	15.74 ± 0.64
131.22 K	16.79 ± 0.68
141.3 K	17.72 ± 0.72
151.36 K	18.54 ± 0.75
161.49 K	19.25 ± 0.78
171.61 K	19.88 ± 0.81
181.69 K	20.47 ± 0.83
191.79 K	21.01 ± 0.85
201.89 K	21.48 ± 0.87
211.98 K	21.89 ± 0.89
222.08 K	22.24 ± 0.9
232.18 K	22.58 ± 0.92
242.28 K	22.91 ± 0.93
252.36 K	23.16 ± 0.94
262.46 K	23.41 ± 0.95
272.56 K	23.64 ± 0.96
282.64 K	23.88 ± 0.97
292.73 K	24.08 ± 0.98
302.81 K	24.25 ± 0.98

O=C(O)c1ccccc1 [benzoic acid]
Conditions	molar heat capacity at constant pressure [J/K/mol]
1.855 K	0.01205 ± 0.0013
1.92 K	0.01371 ± 0.0015
1.999 K	0.01544 ± 0.0017
2.082 K	0.0168 ± 0.0018
2.168 K	0.01932 ± 0.0021
2.26 K	0.02218 ± 0.0024
2.357 K	0.02464 ± 0.0026
2.464 K	0.0282 ± 0.003
2.568 K	0.03421 ± 0.0036
2.679 K	0.03716 ± 0.004
2.796 K	0.04141 ± 0.0044
2.918 K	0.04667 ± 0.005
3.044 K	0.04829 ± 0.0051
3.179 K	0.0605 ± 0.0064
3.32 K	0.07095 ± 0.0075
3.465 K	0.07898 ± 0.0084
3.617 K	0.08814 ± 0.0094
3.776 K	0.103 ± 0.011
3.942 K	0.1157 ± 0.012
4.118 K	0.1296 ± 0.014
4.303 K	0.1534 ± 0.016
4.491 K	0.172 ± 0.018
4.686 K	0.1966 ± 0.021
4.893 K	0.2248 ± 0.024
5.109 K	0.2491 ± 0.026
5.336 K	0.3026 ± 0.032
5.572 K	0.3324 ± 0.035
5.823 K	0.382 ± 0.041
6.077 K	0.452 ± 0.048
6.345 K	0.5096 ± 0.054
6.625 K	0.5803 ± 0.062
6.92 K	0.6878 ± 0.073
7.225 K	0.7916 ± 0.084
7.545 K	0.8991 ± 0.095
7.878 K	1.031 ± 0.11
8.227 K	1.197 ± 0.13
8.596 K	1.338 ± 0.14
8.976 K	1.541 ± 0.16
9.373 K	1.763 ± 0.19
9.789 K	1.997 ± 0.21
10.24 K	2.278 ± 0.24
10.71 K	2.579 ± 0.27
11.18 K	2.902 ± 0.31
11.68 K	3.262 ± 0.35
12.2 K	3.647 ± 0.39
12.74 K	4.074 ± 0.43
13.3 K	4.535 ± 0.48
13.89 K	5.046 ± 0.54
14.5 K	5.598 ± 0.59
15.14 K	6.188 ± 0.33
15.64 K	6.658 ± 0.36
17.1 K	8.085 ± 0.43
18.69 K	9.716 ± 0.52
20.41 K	11.56 ± 0.62
22.32 K	13.61 ± 0.73
24.4 K	15.91 ± 0.85
26.66 K	18.4 ± 0.98
29.13 K	20.97 ± 1.1
31.84 K	23.77 ± 1.3
34.8 K	26.64 ± 1.4
38.03 K	29.6 ± 1.6
41.56 K	32.79 ± 1.8
45.42 K	35.88 ± 1.9
49.63 K	39.11 ± 2.1
54.24 K	42.18 ± 2.3
59.28 K	45.06 ± 2.4
64.78 K	47.92 ± 2.6
70.79 K	50.65 ± 2.7
77.36 K	53.75 ± 2.9
84.51 K	57.18 ± 3.1
92.38 K	61.03 ± 3.3
100.95 K	64.26 ± 3.4
110.98 K	67.64 ± 3.6
121.09 K	71.22 ± 3.8
131.21 K	75.19 ± 4
141.28 K	78.86 ± 4.2
151.34 K	82.29 ± 4.4
161.49 K	85.76 ± 4.6
171.59 K	90.18 ± 4.8
181.67 K	95.02 ± 5.1
191.74 K	98.7 ± 5.3
201.82 K	102.27 ± 5.5
211.92 K	106.37 ± 5.7
222 K	112.07 ± 6
232.09 K	117.31 ± 6.3
242.17 K	119.6 ± 6.4
252.25 K	124.22 ± 6.6
262.35 K	128.72 ± 6.9
272.46 K	133 ± 7.1
282.54 K	137.8 ± 7.4
292.59 K	141.72 ± 7.6
302.66 K	146.37 ± 7.8
